Read-outs that look alike come from different tables or passages of the source.
Experiments:
[1] = tested on: HIV-1; test: NCI in vitro anti-HIV drug screen: XTT-formazan assay, protection of T4 lymphocytes (CEM) from HIV-1 cytopathic effects; assay type: cell-based, human immunodeficiency virus (HIV-1); conditions: for EC50: 144 h, HIV-1 infected CEM cells, 6 days, XTT, approximate values, read-out: EC50 (50% effective concentration against HIV cytopathic effects); for inhibition at 2 µM / activity at 2 µM: dose 2.00 × 10^-6 Molar; for inhibition at 0.2 µM / activity at 0.2 µM: dose 2.00 × 10^-7 Molar; for inhibition at 0.02 µM / activity at 0.02 µM: dose 2.00 × 10^-8 Molar; for inhibition at 6.32 µM / activity at 6.32 µM: dose 6.32 × 10^-6 Molar; for inhibition at 0.633 µM / activity at 0.633 µM: dose 6.33 × 10^-7 Molar; for inhibition at 0.0634 µM: read-out: Percent of Protection, dose 6.34 × 10^-8 Molar; for inhibition at 0.00635 µM: read-out: Percent of Protection, dose 6.35 × 10^-9 Molar; for activity at 0.0634 µM: dose 6.34 × 10^-8 Molar; for activity at 0.00635 µM: dose 6.35 × 10^-9 Molar; for TI50 (IC/EC), Therapeutic Index: IC50/EC50
Procedure: Compounds of the present invention were evaluated for anti-HIV efficacy by the National Cancer Institute's (NCI) In Vitro Anti AIDS Drug Discovery Program.
(§1) The NCI procedure is fully described, for example, in a bulletin provided by the National Institutes of Health, National Cancer Institute, Bethesda, Md. 20892, all of which is incorporated herein by reference. As related in the NCI bulletin, the procedure is based on O. W. Weislow et al., "New soluble-formazan assay for HIV-1 cytopathic effects: application to high flux screening of synthetic and natural products for AIDS-antiviral activity", J. Natl. Cancer Inst. 81:577-586 (1989), and is used to test for compounds active against human immunodeficiency virus (HIV), and is designed to detect compounds active at any stage of the virus reproductive cycle. As further related in the NCI bulletin, the assay includes killing of T4 lymphocytes by HIV. Amounts of HIV are added to cells, with a minimum of two cycles of virus reproduction found to be necessary to obtain the required cell killing. Compounds that interact with virions, cells, or virus gene-products to interfere with viral activities will protect cells from cytolysis. All were compared with a positive (e.g., AZT-treated) control evaluation at the same time under identical conditions. The procedure is set forth as follows:
(§2) A candidate compound is first dissolved in a suitable solvent, preferably dimethyl sulfoxide, then diluted 1:100 in cell culture medium before preparing serial half-log10 dilutions. T4 lymphocytes (CEM cell line) are then added and after a brief interval HIV-1 is added, resulting in a 1:200 final dilution of the compound. Uninfected cells with the compound serve as a toxicity control, and infected and uninfected without the compound serve as basic controls. Cultures are then incubated at 37° in a 5% carbon dioxide atmosphere for 6 days. The tetrazolium salt, XTT, is added to all wells, and cultures are incubated to allow formazan color development by viable cells. Individual wells are analyzed spectrophotometrically to quantitate formazan product, and in addition are viewed microscopically for detection of viable cells and confirmation of protective activity. Drug-treated virus-infected cells are compared with drug-treated noninfected cells and with other appropriate controls (untreated infected and untreated noninfected cells, drug-containing wells without cells, etc.) on the same plate. Data are reviewed in comparison with other tests performed at the same time and a determination as to activity is made.

[2] = tested on: T4 lymphocytes (CEM cell line); test: Cell growth / toxicity control in uninfected T4 lymphocytes (CEM), XTT-formazan; assay type: cell-based; conditions: Homo sapiens, CCRF-CEM; for IC50: 144 h, read-out: IC50 (50% inhibitory concentration for cell growth), uninfected CEM cells, 6 days, XTT, approximate values; for activity at 20 µM: dose 2.00 × 10^-5 Molar; for activity at 2 µM: dose 2.00 × 10^-6 Molar; for activity at 0.2 µM: dose 2.00 × 10^-7 Molar; for activity at 0.02 µM: dose 2.00 × 10^-8 Molar; for activity at 6.32 µM: dose 6.32 × 10^-6 Molar; for activity at 0.633 µM: dose 6.33 × 10^-7 Molar; for activity at 0.0634 µM: dose 6.34 × 10^-8 Molar; for activity at 0.00635 µM: dose 6.35 × 10^-9 Molar
Description: as §1, §2

[3] = Human immunodeficiency virus 1, CCRF-CEM
[4] = Human immunodeficiency virus 1, CCRF-CEM, dose 2.00 × 10^-5 Molar, read-out: Percent of Protection
[5] = Human immunodeficiency virus 1, CCRF-CEM, read-out: Percent of Protection
[6] = Human immunodeficiency virus 1, Lymphocyte, dose 2.00 × 10^-5 Molar, read-out: Percent of Control, Infected
[7] = Human immunodeficiency virus 1, Lymphocyte, read-out: Percent of Control, Infected
[8] = read-out: Percent of Control, Uninfected

| Compound | EC50 [1, 3] | inhibition at 20 µM [1, 4] | inhibition at 2 µM [1, 5] | inhibition at 0.2 µM [1, 5] | inhibition at 0.02 µM [1, 5] | inhibition at 6.32 µM [1, 5] | inhibition at 0.633 µM [1, 5] | inhibition at 0.0634 µM [1, 3] | inhibition at 0.00635 µM [1, 3] | activity at 20 µM [1, 6] | activity at 2 µM [1, 7] | activity at 0.2 µM [1, 7] | activity at 0.02 µM [1, 7] | activity at 6.32 µM [1, 7] | activity at 0.633 µM [1, 7] | TI50 (IC/EC), Therapeutic Index [1] | IC50 [2] | activity at 20 µM [2, 8] | activity at 2 µM [2, 8] | activity at 0.2 µM [2, 8] | further results |
| --- | --- | --- | --- | --- | --- | --- | --- | --- | --- | --- | --- | --- | --- | --- | --- | --- | --- | --- | --- | --- | --- |
| Cc1cc2c(c(S(=O)(=O)c3ccccc3[N+](=O)[O-])c1)NCCC2 [Compound 50, 8-(2-nitrophenyIsulfonyl)6-methyl-1,2,3,4-tetrahydroquinoline] | 0.0751 µM | 97.4% | 107% | 86.3% | -2.76% | 109% | 84.2% | 44.1% | -3.62% | 97.6% | 106% | 87.6% | 6.49% | 108% | 85.7% | > 2.66 × 10^-2 | > 20 µM | 101% | 91% | 87.1% | activity at 0.0634 µM [1, 7]: 49.1%; activity at 0.00635 µM [1, 7]: 5.71%; activity at 0.02 µM [2, 8]: 88.4%; activity at 6.32 µM [2, 8]: 91.2%; activity at 0.633 µM [2, 8]: 89.3%; activity at 0.0634 µM [2, 8]: 90.5%; activity at 0.00635 µM [2, 8]: 90.2% |
| CN(c1ccccc1)S(=O)(=O)c1cccc([N+](=O)[O-])c1 [Compound 14, N-(3-nitrophenylsulfonyl)-N-methylaniline] | 42.5 µM |  | -6.93% | -10.9% |  |  |  |  |  | 9.75% | 6.97% | 3.54% |  |  |  | 3.34 × 10^0 | 142 µM | 83.8% | 87.2% | 93.2% | inhibition at 200 µM ([1]; Human immunodeficiency virus 1, CCRF-CEM, dose 2.00 × 10^-4 Molar, read-out: Percent of Protection): 5.28%; inhibition at 63.3 µM ([1]; Human immunodeficiency virus 1, CCRF-CEM, dose 6.33 × 10^-5 Molar, read-out: Percent of Protection): 78.3%; inhibition at 0.634 µM ([1]; Human immunodeficiency virus 1, CCRF-CEM, dose 6.34 × 10^-7 Molar, read-out: Percent of Protection): -13.4%; inhibition at 20 µM ([1]; Human immunodeficiency virus 1, CCRF-CEM, read-out: Percent of Protection, dose 2.00 × 10^-5 Molar): -3.74%; inhibition at 6.33 µM ([1]; Human immunodeficiency virus 1, CCRF-CEM, read-out: Percent of Protection, dose 6.33 × 10^-6 Molar): -3.87%; inhibition at 0.0635 µM ([1]; Human immunodeficiency virus 1, CCRF-CEM, read-out: Percent of Protection, dose 6.35 × 10^-8 Molar): -11.1%; activity at 200 µM ([1]; Human immunodeficiency virus 1, Lymphocyte, dose 2.00 × 10^-4 Molar, read-out: Percent of Control, Infected): 17.6%; activity at 63.3 µM ([1]; Human immunodeficiency virus 1, Lymphocyte, dose 6.33 × 10^-5 Molar, read-out: Percent of Control, Infected): 81.1%; activity at 6.33 µM ([1]; Human immunodeficiency virus 1, Lymphocyte, dose 6.33 × 10^-6 Molar, read-out: Percent of Control, Infected): 16.4%; activity at 0.634 µM ([1]; Human immunodeficiency virus 1, Lymphocyte, dose 6.34 × 10^-7 Molar, read-out: Percent of Control, Infected): 1.34%; activity at 0.0635 µM ([1]; Human immunodeficiency virus 1, Lymphocyte, dose 6.35 × 10^-8 Molar, read-out: Percent of Control, Infected): 3.37%; activity at 200 µM ([2]; dose 2.00 × 10^-4 Molar, read-out: Percent of Control, Uninfected): 41.5%; activity at 63.3 µM ([2]; dose 6.33 × 10^-5 Molar, read-out: Percent of Control, Uninfected): 70.2%; activity at 6.33 µM ([2]; dose 6.33 × 10^-6 Molar, read-out: Percent of Control, Uninfected): 81.3%; activity at 0.634 µM ([2]; dose 6.34 × 10^-7 Molar, read-out: Percent of Control, Uninfected): 87.8%; activity at 0.0635 µM ([2]; dose 6.35 × 10^-8 Molar, read-out: Percent of Control, Uninfected): 94.8% |
| O=[N+]([O-])c1ccccc1S(=O)(=O)c1cc(Cl)cc2c1NCCC2 [Compound 47, 8-(2-nitrophenylsulfonyl)6chloro-1,2,3,4-tetrahydroquinoline] | 0.312 µM | 86.2% | 88.8% | 25.3% | 6% | 102% | 90% | 8.87% | 3% | 86.2% | 88.8% | 25.3% | 6% | 102% | 90% | 6.41 × 10^+1 | > 20 µM | 96.1% | 92.6% | 87.1% | activity at 0.0634 µM [1, 7]: 8.87%; activity at 0.00635 µM [1, 7]: 3%; activity at 0.02 µM [2, 8]: 91.2%; activity at 6.32 µM [2, 8]: 104%; activity at 0.633 µM [2, 8]: 86.3%; activity at 0.0634 µM [2, 8]: 92%; activity at 0.00635 µM [2, 8]: 91.2% |

— patent US6303630A, “Diarylsulfone non-nucleoside reverse transcriptase inhibitors of human immunodeficiency virus” (University of the Sciences in Philadelphia, priority 2000, dated 2001)
